Like-named read-outs stand apart in the source and are kept apart here.
How the values were obtained:
[1] = Pharmacokinetic study of intravenous injection in rats; details: SD, rat, plasma, 1 mg/kg
Text: Through the in vivo drug metabolism test in rats, values such as Cmax, t1/2, AUC, MRT and B/P ratio of the compound in vivo were used as indicators to evaluate the metabolism of the compound in rats.
1. Pharmacokinetic Study of Intravenous Injection of Dezocine and Analogues Thereof in Rats
Mixing the test compound with an appropriate amount of physiological saline solution of 20% polyethylene glycol 400, followed by vortex and sonicate, and adjusting the pH to 4-5 with hydrochloric acid to obtain 5 mg/mL approximately clear solution, filtering the solution by microporous filtering film to be used. Selecting 6 to 9 weeks old SD rats (Shanghai Sleek Laboratory Animal Co., Ltd.) and intravenously injecting the test compound solution at a dose of 1 mg/kg. Collecting whole blood in certain time to prepare and obtain plasma. Analyzing drug concentrations by LC-MS/MS method and calculating pharmacokinetic parameters using Phoenix WinNonlin software (Pharsight, USA).

[2] = molecular target: T1, μ opioid receptor (Homo sapiens, UniProt P35372); experiment: FLIPR intracellular calcium signal test, HEK293-μ cells; type: cell-based; details: for EC50: EC50 (activation) test, read-out: Mu receptor EC50; for IC50: IC50 (inhibition) test against EC80 of positive agonist, read-out: Mu receptor IC50
T1 construct: expressed in transfected cells
Method: (§1) Fluorescence imaging plate reader FLIPR was used to detect changes of intracellular calcium signals. EC50 and IC50 values of the compounds were used as indicators to evaluate the activation or inhibition of the compounds on μ, κ, and δ opioid receptors.
(§2) Cell lines: HEK293-μ, HEK293-κ and HEK293-δ, stable-transfected cell lines HEK293-μ, HEK293-κ and HEK293-δ; Cell culture media (DMEM, Invitrogen #11965118, 10% fetal bovine serum Invitrogen #10099141, Geneticin Selective Antibiotic (G418) 300 μg/mL, Invitrogen #10131027, Blasticidin-S HCL 2 ug/mL Invitrogen #A1113902)
(§3) 1. Cell Seeding (HEK293-μ, HEK293-κ and HEK293-δ Cells)
(§4) 1) Preheating medium, pancreatic enzyme, and DPBS in a 37° C. water bath. Aspirating the culture medium from the cell culture flask and washing it with 10 mL DPBS;
(§5) 2) Adding the preheated pancreatic enzyme solution to the cell culture flask, rotating the flask slightly to make the pancreatic enzymes evenly cover the cell surface of the flask, and then putting it into a 37° C., 5% CO2 incubator to digest for 1-2 minutes;
(§6) 3) Suspending the cells with 10-15 mL culture medium in each T150 cm^2 cell culture flask, centrifugating at 800 rpm for 5 minutes, and resuspending the cells with 10 mL culture medium, aspirating 1 mL cell resuspension to be counted with Vi-cell;
(§7) 4) Diluting HEK293-μ, HEK293-κ and HEK293-δ cells to 5×10^5/mL with culture medium, use multichannel pipette to add diluted cells into 384 plate (Greiner #781946) (50 μL/well, 25000 cells/well for HEK293-μ, HEK293-κ and HEK293-δ cells). Placing the cell plate in a 37° C., 5% CO2 incubator overnight.
(§8) 2. Adding Compound Samples:
(§9) 1) Diluting the compound to 20 mM with DMSO, 3 fold diluted, 8 gradients, double reduplicative wells, and adding it to the compound plate using an Echo ultrasonic liquid handler device (Echo liquid handler).
(§10) 1) Washing off the cell culture medium in 384 plate with vacuum pump, adding 20 μL Fluo-4 Direct fluorescent dye, then incubating in a 37° C., 5% CO2 incubator for 50 minutes, followed by equilibrating at room temperature for 10 minutes.
(§11) 2) EC50 test: Adding 20 uL HBSS buffer (containing 20 mM HEPES) to the compound plate, mixing well and centrifugating. Placing the cell plate and compound plate into FLIPR and reading the fluorescence value.
(§12) Calculating the EC80 value with the EC50 value of the positive agonist, preparing 4× EC80 solution, adding it to the 384 compound plate by multichannel pipette, and mixing well and centrifugating.
(§13) 4) IC50 test: In FLIPR, successively placing 4× EC80 plate, cell plate, FLIPR tip, running the program and reading the fluorescence value.
(§14) 4. Data Analyzing: Using Prism 5.0 to Analyze the Data and Calculate the EC50 and IC50 Values of the Compounds.

[3] = molecular target: T2, κ opioid receptor (Homo sapiens, UniProt P41145); experiment: FLIPR intracellular calcium signal test, HEK293-κ cells; type: cell-based; details: for EC50: EC50 (activation) test, read-out: Kapp receptor EC50; for IC50: IC50 (inhibition) test against EC80 of positive agonist, read-out: Kapp receptor IC50
T2 construct: expressed in transfected cells
Method: as §1, §2, §3, §4, §5, §6, §7, §8, §9, §10, §11, §12, §13, §14

[4] = molecular target: T3, δ opioid receptor (Homo sapiens, UniProt P41143); experiment: FLIPR intracellular calcium signal test, HEK293-δ cells; type: cell-based; details: for EC50: EC50 (activation) test, read-out: Delt receptor EC50; for IC50: IC50 (inhibition) test against EC80 of positive agonist, read-out: Delt receptor IC50
T3 construct: expressed in transfected cells
Method: as §1, §2, §3, §4, §5, §6, §7, §8, §9, §10, §11, §12, §13, §14

[5] = Brain distribution study of intravenous injection in rats; details: rat, 1 mg/kg, brain tissue to plasma concentration ratio; for B/P ratio (0.25 h): 0.25 h after dosing; for B/P ratio (2 h): 2 h after dosing
Method: 2. Brain Distribution Study of Intravenous Injection of Dezocine and Analogues Thereof in Rats
Intravenously injecting the test compound solution in the same manner as example 1 at a dose of 1 mg/kg. Executing animals with carbon dioxide 15 minutes and 2 hours after dosing, collecting whole blood and brain tissue sample, centrifugating the whole blood to obtain plasma, and homogenizing the brain tissue with triple volumes of deionized water. Analyzing drug concentration of the plasma and brain homogenate samples by LC-MS/MS method, and calculating the concentration ratio of brain tissue to plasma (B/P ratio).

[6] = Pharmacokinetics of intramuscular injection of Compound 21 and prodrug thereof in rats; details: SD, in vivo, im, rat
Text: 3. Pharmacokinetics of Intramuscular Injection of Compound 21 and Prodrug Thereof in Rats
Mixing the test compound with an appropriate amount of sesame oil, followed by vortex and sonicate, to prepare and obtain 25 μmol/mL homogeneous suspension. […] Collecting whole blood in certain time, adding precipitant (acetonitrile, methanol and analytical internal standard) and centrifugating.

T3 sequence (P41143 whole entry): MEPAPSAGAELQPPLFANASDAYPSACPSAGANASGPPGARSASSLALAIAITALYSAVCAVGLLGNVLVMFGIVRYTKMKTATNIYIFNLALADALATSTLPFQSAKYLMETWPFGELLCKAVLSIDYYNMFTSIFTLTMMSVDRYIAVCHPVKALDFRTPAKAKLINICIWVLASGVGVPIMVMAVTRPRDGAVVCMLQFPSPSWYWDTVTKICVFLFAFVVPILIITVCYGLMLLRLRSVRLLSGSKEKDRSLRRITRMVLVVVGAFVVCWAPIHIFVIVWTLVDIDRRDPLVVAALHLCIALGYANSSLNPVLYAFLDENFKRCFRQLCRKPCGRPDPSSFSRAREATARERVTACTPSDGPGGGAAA
T1 sequence (P35372 whole entry): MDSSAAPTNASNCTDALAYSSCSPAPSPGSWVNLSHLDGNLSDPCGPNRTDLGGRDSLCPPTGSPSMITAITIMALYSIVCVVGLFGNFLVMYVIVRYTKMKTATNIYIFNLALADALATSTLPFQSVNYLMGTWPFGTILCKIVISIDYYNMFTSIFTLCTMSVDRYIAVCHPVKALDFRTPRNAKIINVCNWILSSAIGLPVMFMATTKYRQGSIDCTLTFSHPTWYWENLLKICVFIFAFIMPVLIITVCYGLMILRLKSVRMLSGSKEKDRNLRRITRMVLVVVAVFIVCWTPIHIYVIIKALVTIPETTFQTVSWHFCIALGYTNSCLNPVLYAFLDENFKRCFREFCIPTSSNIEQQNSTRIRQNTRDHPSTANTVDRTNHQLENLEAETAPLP
T2 sequence (P41145 whole entry): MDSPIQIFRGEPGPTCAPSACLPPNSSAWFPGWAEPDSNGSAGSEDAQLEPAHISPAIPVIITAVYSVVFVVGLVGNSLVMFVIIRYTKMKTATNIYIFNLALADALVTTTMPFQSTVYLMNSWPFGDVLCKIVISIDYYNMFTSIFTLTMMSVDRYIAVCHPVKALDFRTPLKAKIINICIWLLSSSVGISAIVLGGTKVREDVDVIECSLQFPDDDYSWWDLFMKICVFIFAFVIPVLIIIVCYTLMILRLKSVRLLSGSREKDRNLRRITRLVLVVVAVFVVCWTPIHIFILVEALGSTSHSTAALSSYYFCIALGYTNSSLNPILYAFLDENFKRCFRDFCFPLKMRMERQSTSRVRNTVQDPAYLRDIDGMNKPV

Compound | AUC(0-t) [1] | C0 [1] | MRT last [1] | Vd [1] | clearance [1] | half-life [1] | EC50 [2] | IC50 [2] | EC50 [3] | IC50 [3] | EC50 [4] | IC50 [4] | B/P ratio (0.25 h) [5] | B/P ratio (2 h) [5] | other results
C[C@@]12CCCCC[C@@H](Cc3ccc(O)cc31)[C@@H]2N (relative stereo) [Dezocine, (−)-[5R-(5α,11α,13S*)]-13-amino-5,6,7,8,9,10,11,12-octahydro-5-methyl-5,11-methan obenzocyclodecen-3-ol] | 485 nM·h | 0.684 µM | 1.22 h | 12.2 L/kg | 8.34 L/h/kg | 1.26 h | – | – | – | – | – | – | – | – | –
C[C@@]12CCCCC[C@@H](Cc3c(F)cc(O)cc31)[C@@H]2N [Compound 21] | 387 nM·h | 0.493 µM | 1.35 h | 16.2 L/kg | 9.3 L/h/kg | 1.42 h | ≤ 0.1 µM | ≤ 0.1 µM | > 100 µM | 1 to 10 µM | > 100 µM | 1 to 10 µM | 13.3 | 19.8 | half-life ([6]; 40 umol/kg, Compound 21 itself dosed at 40 μmol/kg, sesame oil suspension): 4.2 h; AUC(0-t) ([6]; 40 umol/kg, Compound 21 itself dosed at 40 μmol/kg, sesame oil suspension, read-out: AUC0-last): 3990 nM·h; Cmax ([6]; 40 umol/kg, Compound 21 itself dosed at 40 μmol/kg, sesame oil suspension, read-out: Cmax): 1.75 µM; MRT last ([6]; 40 umol/kg, Compound 21 itself dosed at 40 μmol/kg, sesame oil suspension, read-out: MRT0-last): 2.82 h; Tmax ([6]; 40 umol/kg, Compound 21 itself dosed at 40 μmol/kg, sesame oil suspension, read-out: Tmax): 0.5 h
C[C@]12CCCCC[C@@H](Cc3c(Cl)cc(O)cc31)[C@@H]2N [Compound 23] | 341 nM·h | 0.362 µM | 1.65 h | 20.6 L/kg | 9.9 L/h/kg | 1.6 h | ≤ 0.1 µM | ≤ 0.1 µM | > 100 µM | 1 to 10 µM | > 100 µM | > 100 µM | 16.7 | 27.9 | –
C[C@@]12CCCCC[C@@H](Cc3c(F)cc(OC(=O)CCCCC(=O)Oc4cc(F)c5c(c4)[C@@]4(C)CCCCC[C@@H](C5)[C@@H]4N)cc31)[C@@H]2N [Compound 34] | – | – | – | – | – | – | – | – | – | – | – | – | – | – | AUC(0-t) ([6]; 20 umol/kg, carboxylic diester prodrug 20 μmol/kg, analyte: prodrug itself, read-out: AUC0-last of the prodrug): 2.95 nM·h; Cmax ([6]; 20 umol/kg, carboxylic diester prodrug 20 μmol/kg, analyte: prodrug itself, read-out: Cmax of the prodrug): 0.00391 µM; MRT last ([6]; 20 umol/kg, carboxylic diester prodrug 20 μmol/kg, analyte: prodrug itself, read-out: MRT0-last of the prodrug): 0.539 h; Tmax ([6]; 20 umol/kg, carboxylic diester prodrug 20 μmol/kg, analyte: prodrug itself, read-out: Tmax of the prodrug): 0.25 h

From US10414718B2, “Dezocine analogue” (priority 2016, dated 2019)
